Source: patent publication US7772246B2 (Pfizer Inc., priority 2007, dated 2010)

Molecular target: T1, b-Raf (Homo sapiens, UniProt P15056, V600E)
T1 construct: endogenous in cells; host or cells: A2058 human melanoma cells
Assay: Raf cellular assay (phospho-Mek1/2 ELISA in A2058 cells)
Assay type: cell-based
Settings: Table 3; human melanoma A2058 cells (b-Raf mutation), Mek1/2 Ser217/221 phosphorylation, 1 hour incubation; read-out: pMEK IC50
Procedure, shortened: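 A2058 melanoma cells (B-Raf mutant), seeded overnight in 10% FBS DMEM, were exposed to compounds (11-point 1:3 series, duplicate) for 1 h at 37 °C. Lysates were captured on anti-Mek1-coated plates and Mek1/2 Ser217/221 phosphorylation was read by anti-phospho-Mek1/2 ELISA, HRP/TMB, 450 nm.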

T1 sequence (P15056 whole entry V600E): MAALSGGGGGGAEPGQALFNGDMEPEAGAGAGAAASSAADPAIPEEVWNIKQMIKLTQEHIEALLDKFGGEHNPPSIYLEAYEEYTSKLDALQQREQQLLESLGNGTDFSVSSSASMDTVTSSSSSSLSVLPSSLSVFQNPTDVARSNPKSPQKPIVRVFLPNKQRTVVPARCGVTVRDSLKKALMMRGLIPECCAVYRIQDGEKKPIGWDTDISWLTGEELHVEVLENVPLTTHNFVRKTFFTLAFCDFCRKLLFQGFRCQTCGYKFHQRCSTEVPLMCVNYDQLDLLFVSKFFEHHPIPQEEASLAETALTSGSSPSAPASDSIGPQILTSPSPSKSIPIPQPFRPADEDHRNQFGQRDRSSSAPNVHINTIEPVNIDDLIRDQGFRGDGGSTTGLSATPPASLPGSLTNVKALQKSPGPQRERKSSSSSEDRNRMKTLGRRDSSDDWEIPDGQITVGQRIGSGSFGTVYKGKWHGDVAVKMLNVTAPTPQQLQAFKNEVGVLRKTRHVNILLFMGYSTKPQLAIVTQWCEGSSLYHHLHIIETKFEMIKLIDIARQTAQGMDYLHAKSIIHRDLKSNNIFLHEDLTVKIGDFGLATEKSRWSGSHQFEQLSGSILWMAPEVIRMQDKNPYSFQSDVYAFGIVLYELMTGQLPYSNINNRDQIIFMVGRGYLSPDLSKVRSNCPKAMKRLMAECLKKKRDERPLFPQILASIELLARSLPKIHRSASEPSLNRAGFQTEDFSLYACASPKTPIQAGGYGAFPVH

Compound	IC50 [nM]
C[C@H](O)CNc1nccc(-c2cn([C@H]3C[C@@H](F)C3)nc2-c2cnc3[nH]cc(Cl)c3c2)n1 [Example B-84, (S)-1-(4-(3-(3-chloro-1H-pyrrolo[2,3-b]pyridin-5-yl)-1-((1s,3s)-3-fluorocyclobutyl)-1H-pyrazol-4-yl)pyrimidin-2-ylamino)propan-2-ol]	18.7
COc1cc(-c2nn([C@H]3C[C@H](F)C3)cc2-c2ccnc(NC[C@H](C)O)n2)cnc1N [Example B-85, (S)-1-(4-(3-(6-amino-5-methoxypyridin-3-yl)-1-((1r,3r)-3-fluorocyclobutyl)-1H-pyrazol-4-yl)pyrimidin-2-ylamino)propan-2-ol]	21.9
C[C@H](O)CNc1nccc(-c2cn([C@H]3C[C@H](F)C3)nc2-c2cnc3[nH]cc(Cl)c3c2)n1 [Example B-86, (S)-1-(4-(3-(3-chloro-1H-pyrrolo[2,3-b]pyridin-5-yl)-1-((1r,3r)-3-fluorocyclobutyl)-1H-pyrazol-4-yl)pyrimidin-2-ylamino)propan-2-ol]	30.6
Cc1n[nH]c2ncc(-c3nn(CC(F)F)cc3-c3ccnc(NCCC#N)n3)cc12 [Example B-91, 3-(4-(1-(2,2-difluoroethyl)-3-(3-methyl-1H-pyrazolo[3,4-b]pyridin-5-yl)-1H-pyrazol-4-yl)pyrimidin-2-ylamino)propanenitrile]	4.94
Cc1c[nH]c2ncc(-c3nn(CC(F)F)cc3-c3ccnc(NCCC#N)n3)cc12 [Example B-93, 3-(4-(1-(2,2-difluoroethyl)-3-(3-methyl-1H-pyrrolo[2,3-b]pyridin-5-yl)-1H-pyrazol-4-yl)pyrimidin-2-ylamino)propanenitrile]	0.275
Cc1n[nH]c2ncc(-c3nn(C(C)(C)CO)cc3-c3ccnc(NCCC#N)n3)cc12 [Example B-94, 3-(4-(1-(1-hydroxy-2-methylpropan-2-yl)-3-(3-methyl-1H-pyrazolo[3,4-b]pyridin-5-yl)-1H-pyrazol-4-yl)pyrimidin-2-ylamino)propanenitrile]	13.3
Cc1[nH]c2ncc(-c3nn(C(C)C)cc3-c3ccnc(NC[C@H](C)O)n3)cc2c1Cl [Example B-97, (2S)-1-({4-[3-(3-chloro-2-methyl-1H-pyrrolo[2,3-b]pyridin-5-yl)-1-isopropyl-1H-pyrazol-4-yl]pyrimidin-2-yl}amino)propan-2-ol]	174
C[C@H](O)CNc1nccc(-c2cn(CC3(C)COC3)nc2-c2cnc3[nH]cc(Cl)c3c2)n1 [Example B-98, (2S)-1-[(4-{3-(3-chloro-1H-pyrrolo[2,3-b]pyridin-5-yl)-1-[(3-methyloxetan-3-yl)methyl]-1H-pyrazol-4-yl}pyrimidin-2-yl)amino]propan-2-ol]	146
C[C@H](O)CNc1nccc(-c2cn(C3COC3)nc2-c2cnc3[nH]cc(Cl)c3c2)n1 [Example B-99, (2S)-1-({4-[3-(3-chloro-1H-pyrrolo[2,3-b]pyridin-5-yl)-1-oxetan-3-yl-1H-pyrazol-4-yl]pyrimidin-2-yl}amino)propan-2-ol]	235
C[C@H](O)CNc1nccc(-c2cn(CC(F)F)nc2-c2cnc3[nH]cc(C#N)c3c2)n1 [Example B-103, 5-[1-(2,2-difluoroethyl)-4-(2-{[(2S)-2-hydroxypropyl]amino}pyrimidin-4-yl)-1H-pyrazol-3-yl]-1H-pyrrolo[2,3-b]pyridine-3-carbonitrile]	3800
Nc1nccc(-c2cn(CC(F)F)nc2-c2cnc3[nH]cc(Cl)c3c2)n1 [Example B-107, 4-[3-(3-chloro-1H-pyrrolo[2,3-b]pyridin-5-yl)-1-(2,2-difluoroethyl)-1H-pyrazol-4-yl]pyrimidin-2-amine]	8.06
Cc1c[nH]c2ncc(-c3nn(CC(F)F)cc3-c3ccnc(N)n3)cc12 [Example B-108, 4-[1-(2,2-difluoroethyl)-3-(3-methyl-1H-pyrrolo[2,3-b]pyridin-5-yl)-1H-pyrazol-4-yl]pyrimidin-2-amine]	11.2
COCCCn1cc(-c2ccnc(NC[C@H](C)O)n2)c(-c2cnc3[nH]cc(Cl)c3c2)n1 [Example B-110, (2S)-1-({4-[3-(3-chloro-1H-pyrrolo[2,3-b]pyridin-5-yl)-1-(3-methoxypropyl)-1H-pyrazol-4-yl]pyrimidin-2-yl}amino)propan-2-ol]	144
COc1cc(-c2nn(C(C)C)cc2-c2ccnc(NC[C@H](C)O)n2)cnc1N [Example B-111, (2S)-1-({4-[3-(6-amino-5-methoxypyridin-3-yl)-1-isopropyl-1H-pyrazol-4-yl]pyrimidin-2-yl}amino)propan-2-ol]	6.13
Cc1c[nH]c2ncc(-c3nn(C4CCN(C)CC4)cc3-c3ccnc(NCC(F)F)n3)cc12 [Example B-113, N-(2,2-difluoroethyl)-4-[1-(1-methylpiperidin-4-yl)-3-(3-methyl-1H-pyrrolo[2,3-b]pyridin-5-yl)-1H-pyrazol-4-yl]pyrimidin-2-amine]	1.48
CN1CCC(n2cc(-c3ccnc(NCC(F)F)n3)c(-c3cnc4[nH]cc(Cl)c4c3)n2)CC1 [Example B-114, 4-[3-(3-chloro-1H-pyrrolo[2,3-b]pyridin-5-yl)-1-(1-methylpiperidin-4-yl)-1H-pyrazol-4-yl]-N-(2,2-difluoroethyl)pyrimidin-2-amine]	2.22
COc1cc(-c2n[nH]cc2-c2ccnc(N)n2)cnc1N [Example C-2, 4-[3-(6-amino-5-methoxypyridin-3-yl)-1H-pyrazol-4-yl]pyrimidin-2-amine]	1310
N#CCCNc1nccc(-c2cn(CC(F)F)nc2-c2cnc3c(ccn3CCC#N)c2)n1 [Example D-15]	107

Next, values leading:

IC50 [nM]	Compound
510	CC1CNc2ncc(-c3nn(CC(F)F)cc3-c3ccnc(NC[C@H](C)O)n3)cc21 (stereo partly drawn) [Example B-87, (2S)-1-(4-(1-(2,2-difluoroethyl)-3-(3-methyl-2,3-dihydro-1H-pyrrolo[2,3-b]pyridin-5-yl)-1H-pyrazol-4-yl)pyrimidin-2-ylamino)propan-2-ol]
6.93	N#CCCNc1nccc(-c2cn(CC(F)F)nc2-c2cnc3c(c2)CCN3)n1 [Example B-88, 3-(4-(1-(2,2-difluoroethyl)-3-(2,3-dihydro-1H-pyrrolo[2,3-b]pyridin-5-yl)-1H-pyrazol-4-yl)pyrimidin-2-ylamino)propanenitrile]
284	CC(C)(O)CNc1nccc(-c2cn(CC(F)F)nc2-c2cnc3c(c2)CCN3)n1 [Example B-89, 1-(4-(1-(2,2-difluoroethyl)-3-(2,3-dihydro-1H-pyrrolo[2,3-b]pyridin-5-yl)-1H-pyrazol-4-yl)pyrimidin-2-ylamino)-2-methylpropan-2-ol]
43.4	FC(F)CNc1nccc(-c2cn(CC(F)F)nc2-c2cnc3c(c2)CCN3)n1 [Example B-90, N-(2,2-difluoroethyl)-4-(1-(2,2-difluoroethyl)-3-(2,3-dihydro-1H-pyrrolo[2,3-b]pyridin-5-yl)-1H-pyrazol-4-yl)pyrimidin-2-amine]
280	C[C@H](O)CNc1nccc(-c2cn(CC(F)F)nc2-c2cnc3c(c2)[C@@H](C)CN3)n1 [Example B-92, (S)-1-(4-(1-(2,2-difluoroethyl)-3-((R)-3-methyl-2,3-dihydro-1H-pyrrolo[2,3-b]pyridin-5-yl)-1H-pyrazol-4-yl)pyrimidin-2-ylamino)propan-2-ol]
1670	N#CCCNc1nccc(-c2cn(CC(F)F)nc2-c2cnc3c(c2)CC(=O)N3)n1 [Example B-95, 3-(4-(1-(2,2-difluoroethyl)-3-(2-oxo-2,3-dihydro-1H-pyrrolo[2,3-b]pyridin-5-yl)-1H-pyrazol-4-yl)-pyrimidin-2-ylamino)propanenitrile]
14.1	C[C@H](O)CNc1nccc(-c2cn(CC(F)F)nc2-c2cnc3[nH]cc(Cl)c3c2)n1 [Example B-96, (2S)-1-({4-[3-(3-chloro-1H-pyrrolo[2,3-b]pyridin-5-yl)-1-(2,2-difluoroethyl)-1H-pyrazol-4-yl]pyrimidin-2-yl}amino)propan-2-ol]
4.29	Cc1c[nH]c2ncc(-c3nn(CC(F)F)cc3-c3ccnc(NC[C@H](C)O)n3)cc12 [Example B-100, (2S)-1-({4-[1-(2,2-difluoroethyl)-3-(3-methyl-1H-pyrrolo[2,3-b]pyridin-5-yl)-1H-pyrazol-4-yl]pyrimidin-2-yl}amino)propan-2-ol]
107	C[C@H](O)CNc1nccc(-c2cn(CC(F)F)nc2-c2cnc3[nH]cc(F)c3c2)n1 [Example B-101, (2S)-1-({4-[1-(2,2-difluoroethyl)-3-(3-fluoro-1H-pyrrolo[2,3-b]pyridin-5-yl)-1H-pyrazol-4-yl]pyrimidin-2-yl}amino)propan-2-ol]
509	C[C@H](O)CNc1nccc(-c2cn(CC(F)F)nc2-c2cnc3c(c2)CCN3)n1 [Example B-102, (2S)-1-({4-[1-(2,2-difluoroethyl)-3-(2,3-dihydro-1H-pyrrolo[2,3-b]pyridin-5-yl)-1H-pyrazol-4-yl]pyrimidin-2-yl}amino)propan-2-ol]
9.62	COc1cc(-c2nn(CC(F)F)cc2-c2ccnc(NC[C@H](C)O)n2)cnc1N [Example B-104, (2S)-({4-[3-(6-amino-5-methoxypyridin-3-yl)-1-(2,2-difluoroethyl)-1H-pyrazol-4-yl]pyrimidin-2-yl}amino)propan-2-ol]
9.46	Cc1c[nH]c2ncc(-c3nn(CC(F)F)cc3-c3ccnc(NCCO)n3)cc12 [Example B-105, 2-({4-[1-(2,2-difluoroethyl)-3-(3-methyl-1H-pyrrolo[2,3-b]pyridin-5-yl)-1H-pyrazol-4-yl]pyrimidin-2-yl}amino)ethanol]
10.5	OCCNc1nccc(-c2cn(CC(F)F)nc2-c2cnc3[nH]cc(Cl)c3c2)n1 [Example B-106, 2-({4-[3-(3-chloro-1H-pyrrolo[2,3-b]pyridin-5-yl)-1-(2,2-difluoroethyl)-1H-pyrazol-4-yl]pyrimidin-2-yl}amino)ethanol]
